Test results reported in patent publication US6551605B2, “Diesters or polyesters of naphthalene dicarboxylic acid as solubilizer/stabilizer for retinoids” (Haarmann & Reimer, priority 2001, dated 2003).
Converted amounts (≈) assume the structure as drawn. Blank lines part the entries; values can stand above or below the molecule they belong to.

Columns and labels:
skin [1] = settings: topical, 0.1% versus 0.025%; cited from earlier work
skin [2] = settings: topical, 0.1% versus 0.025%; cited from earlier work; remark: listed apart in the source
[3] = Solubility of retinoids in diethylhexyl 2,6-naphthalate (HallBrite TQ); type: physicochemical; settings: organic solvent or mixture, read-out: solubility in diethylhexyl diester of 2,6-naphthalene-dicarboxylic acid
Protocol: Retinoids are lipophilic. […] For example, isotretinoin is soluble in the diethylhexyl diester of 2,6-naphthalene-dicarboxylic acid (diethylhexyl 2,6-naphthalate, HallBrite TQ, C. P. Hall) at approximately 6.7 mg/ml, and tretinoin is soluble in the same diester at approximately 5.6 mg/ml.

[4] = cited from earlier work
[5] = cited from earlier work; remark: listed apart in the source

Structure (SMILES): CC1=C(/C=C/C(C)=C/C=C/C(C)=C\C(=O)O)C(C)(C)CCC1 [isotretinoin, 13-cis-retinoic acid]
degree of irritation (skin [1]): more irritating
therapeutic effectiveness (skin [2]): more effective
solubility [3]: ~6700 µg/mL (≈ 22.3 mM)

solubility [3]: ~5600 µg/mL (≈ 18.6 mM)
Structure (SMILES): CC1=C(/C=C/C(C)=C/C=C/C(C)=C/C(=O)O)C(C)(C)CCC1 [tretinoin, all-trans-retinoic acid]
stability of aqueous solutions ([4]; aqueous solutions): deteriorate quickly
stability of solutions in pure organic solvents ([4]; pure organic solvents, stored in the dark): stable
solubility in chloroform ([5]; chloroform): slightly soluble
solubility in dimethyl sulfoxide ([5]; dimethyl sulfoxide): 40000 µg/mL (≈ 133 mM)
solubility in ether ([5]; ether): sparingly soluble
solubility in methylene chloride ([5]; methylene chloride): soluble
solubility in water ([5]; water): practically insoluble
